Tests used:
[1] = test system: Caco-2 cell line; assay: Chelate permeability: fluorescence of cytoplasm and membrane fractions; assay type: cell-based, human; settings: 1 mM chelate, 2 h
[2] = test system: HEK293 cells, normal (non-induced); assay: Permeability of chelates to HEK293 cells, fluorescence of fractions; assay type: cell-based, human; settings: for Fluorescence/mg Cytoplasm / Fluorescence/mg Membrane: HEK293 Normal, 1 mM chelate, 2 hours; for differential fluorescence, cytoplasm versus membrane fractions: normal HEK293 cells
Method: (§1) The human kidney transformed HEK293 cells (obtained from the ATCC) were grown in Eagle's Minimum Essential Medium (EMEM) supplemented with 10% (v/v) heat-inactivated fetal bovine serum, sodium pyruvate, nonessential amino acids and antibiotics in a humidified 5% CO2 atmosphere at 37° C. Medium and supplements were purchased from Gibco bRL (Grand Island, N.Y.). Etoposide was obtained from Sigma (St. Louis, Mo.) and prepared as 20 mM solution in dimethyl sulfoxide (DMSO). For treatments, etoposide was applied to the HEK293 cultures at 1:1000 dilution (final concentration of 20 μM) after cell became 75% confluent. As a control, cells were fed with medium containing 0.1% DMSO in the absence of etoposide. After treatment with etoposide, cells were incubated in a humidified 5% CO2 at 37° C. for 24 hours. HEK293 cells were collected by removing treatment medium and washed 2 times with 10 mM HEPES buffer. Final cell pellets were resuspended in a small amount of HEPES and stored at 4° C. for further study.
(§2) Cells were grown to confluence in T-150 flasks (about 2×10^6 cells). […] After treatment, the chelate or analogue supernatant was discarded and the cells were rinsed three times at room temperature with 10 mM HEPES. Cells were then removed from the flask by manual scraping. Cells were transferred to a 50-mL conical tube and centrifuged (400×g) for 5 minutes and the test material removed. Remaining cells were rinsed twice with cold 10 mM HEPES. Cells were used in cell binding assays.

[3] = test system: T84 cell line; assay: Chelate permeability: fluorescence of cytoplasm and membrane fractions; assay type: cell-based, human; settings: 1 mM chelate, 2 h
[4] = test system: etoposide-induced (apoptotic) HEK293 cells; assay: Permeability of chelates to apoptotic cells, fluorescence of fractions; assay type: cell-based, human; settings: for Fluorescence/mg Cytoplasm / Fluorescence/mg Membrane: HEK293 Apoptotic (etoposide 20 μM, 24 hours), 1 mM chelate, 2 hours; for differential fluorescence, cytoplasm versus membrane fractions: etoposide-induced HEK293 cells
Method: as §1, §2

[5] = test system: cancer cells (LNCaP, Caco-2, T84); assay: Chelate permeability and specificity, cancer cells versus normal cells (summary); assay type: cell-based, human; settings: for permeability to cell membranes: cancer cells
[6] = test system: LNCaP cell line; assay: Chelate permeability: fluorescence of cytoplasm and membrane fractions; assay type: cell-based, human; settings: 1 mM chelate, 2 h
[7] = test system: PZ-HPV-7 normal cell line; assay: as above; assay type: cell-based; settings: PZ-HVP-7; 1 mM chelate, 2 h; Table 4
[8] = test system: RBL-2H3 cell line; assay: as above; assay type: cell-based, rat; settings: 1 mM chelate, 2 h, Table 4
Method: Tb-PCTMB (Tb(III) 3,6,9-tris(methylene phosphonic acid n-butyl ester)-3,6,9,15-tetraazabicyclo[9.3.1]pentadeca-1(15),11,13-triene) was tested for permeability to abnormal and disease-state cells.
RBL-2H3 is a rat basophilic leukemia cell line. These cells were grown in Iscove's Medium supplemented with 2 mM L-glutamnine, penicillin/streptomycin (100 IU/mL, 100 μg/mL) and 10% FBS. Cells were maintained at 5% CO2 and 95% humidity. PZ-HPV-7 cell line was derived from epithelial cells cultured from normal prostate tissue. They were grown in Keratinocyte-Serum Free Medium with human recombinant EGF and bovine pituitary extract supplemented with 50 μg/mL gentamicin and penicillin/streptomycin (100 IU/mL, 100 μg/mL). All media and supplements were purchased from Gibco BRL (Grand Island, N.Y., USA). All cell lines were obtained from ATCC and were maintained at 37° C., 5% CO2 and 95% humidity.
Cells were grown to confluence in T-150 flasks (about 2×10^6 cells). […] Cells were then removed from the flask by manual scraping. Cells were transferred to a 50-mL conical tube and centrifuged (400×g) for 5 minutes and the test material removed.
Cells were grown as described herein (Example 1). Cells were grown to confluence in T-150 flask (about 2×10^6 cells). […] Cells were then removed from the flask by manual scraping. Cells were transferred to a 50-mL conical tube and centrifuged (400×g) for 5 minutes and the test material removed.
Furthermore, one analogue, QCTMP (FIG. 26), having lesser lipophilic character (a free phosphonic acid moiety) was evaluated. […] In this study, the cytoplasm and membrane fractions were extracted by Mem-PER Eukaryotic Membrane Protein Extraction Reagent Kit as described by the manufacturers (Pierce Biotechnology, Rockford, Ill.) and analyzed by a Fluor-S Multilmager.

SMILES	Fluorescence/mg Cytoplasm ([1]; Table 1)	Fluorescence/mg Membrane ([1]; Table 1)	Fluorescence/mg Cytoplasm [2]	Fluorescence/mg Membrane [2]	differential fluorescence, cytoplasm versus membrane fractions [2]	Fluorescence/mg Cytoplasm ([3]; Table 1)	Fluorescence/mg Membrane ([3]; Table 1)	Fluorescence/mg Cytoplasm [4]	Fluorescence/mg Membrane [4]	differential fluorescence, cytoplasm versus membrane fractions [4]	specificity or selectivity for cancer cells versus normal cells [5]	permeability to cell membranes [5]	Fluorescence/mg Cytoplasm ([6]; Table 1)	Fluorescence/mg Membrane ([6]; Table 1)	other results
COP(=O)([O-])CN1CCN(CP(=O)([O-])OC)Cc2cccc(n2)CN(CP(=O)([O-])OC)CC1.[Tb+3] [Tb-PCTMM]	357.7	388.9	682	679	did not show any significant differential fluorescence	328.3	358.7	656	962	did not show any significant differential fluorescence	did not show any specificity or selectivity	no permeability	344.5	379.5	–
Cc1ccc2nc(CN3CCN(CP(=O)([O-])O)CCN(CP(=O)([O-])O)CCN(CP(=O)([O-])O)CC3)ccc2c1.[Eu+3] [Eu-QCTMP]	–	–	1732	1738	did not show any significant differential fluorescence	–	–	1450	1800	did not show any significant differential fluorescence	did not show any specificity or selectivity	did not appear to be permeable	–	–	Fluorescence/mg Cytoplasm ([1]; Table 4): 2300; Fluorescence/mg Membrane ([1]; Table 4): 2314; Fluorescence/mg Cytoplasm ([3]; Table 4): 2230; Fluorescence/mg Membrane ([3]; Table 4): 2259; Fluorescence/mg Cytoplasm [7]: 2276; Fluorescence/mg Membrane [7]: 2271; Fluorescence/mg Cytoplasm ([6]; Table 4): 2287; Fluorescence/mg Membrane ([6]; Table 4): 2301; Fluorescence/mg Cytoplasm [8]: 2311; Fluorescence/mg Membrane [8]: 2311
O=C([O-])CN1CCN(CC(=O)[O-])Cc2cccc(n2)CN(CC(=O)[O-])CC1.[Tb+3] [Tb-PCTA]	366.3	362.8	686	685	did not show any significant differential fluorescence	333.4	329.1	652	678	did not show any significant differential fluorescence	did not show any specificity or selectivity	no permeability	368.8	362.1	–

From patent US20060210479A1 (Dow Global Technologies Inc., priority 2004, published 2006)
